Results reported in patent publication US4500533A, “2,4,5-Triaryl pyrimidines and a method of treating pain, fever, thrombosis, inflammation and arthritis” (Eli Lilly and Company, priority 1983, dated 1985).

Experiments:
[1] = tested on: adjuvant-induced arthritis; test: Established adjuvant-induced arthritis test in rats (uninjected hind paw swelling); type: in vivo, male Lewis-Wistar rats; conditions: AUC of mean uninjected paw volumes
Mouse Writhing = test: mouse writhing assay (analgesic activity); type: in vivo, Cox standard strain albino male mice; conditions: po, p.o. by gavage in corn oil-acacia emulsion (5%), three hours before i.p. acetic acid (0.60 percent), 10 minute observation starting five minutes after acetic acid, read-out: Mouse Writhing ED50 (dose required to inhibit induced writhing by fifty percent)
From the text: The analgesic activity of a number of compounds provided by this invention has been determined in the standard mouse writhing assay. Writhing, which is characterized by contraction of the abdominal musculature, extension of the hindlegs, and rotation of the trunk, was induced in Cox standard strain albino male mice. The mice, weighing 18-24 grams, were fasted overnight and given the test compound by gavage in a corn oil-acacia emulsion (5%) three hours before writhing was induced by the intraperitoneal administration of acetic acid (0.60 percent). Each treatment group consisted of five mice. The total number of writhes for the treatment group was determined during a 10 minute observation starting five minutes after acetic acid administration. […] Table I which follows presents typical test results obtained with certain of the compounds of this invention. The results in the mouse writhing assay are presented as the effective oral (p.o.) dose in mg./kg. of the tested compound required to inhibit induced writhing in the test animals by fifty percent (ED50).

Structure (SMILES): COc1ccc(-c2cnc(-c3ccc(Cl)cc3)nc2-c2ccc(OC)cc2)cc1 [Example 1, 2-(4-Chlorophenyl)-4,5-bis(4-methoxyphenyl)pyrimidine]
- % Inhibition of Uninjected Paw Volume Inflammation, Days 14 through 30 ([1]; 25 mg./kg. p.o. × 15, daily days 15-29, corn oil-acacia emulsion): 74%
- ED50 (Mouse Writhing): 0.99 mg/kg

Structure (SMILES): COc1ccc(-c2cnc(-c3ccc(F)cc3)nc2-c2ccc(OC)cc2)cc1 [Example 2, 2-(4-Fluorophenyl)-4,5-bis(4-methoxyphenyl)pyrimidine]
- % Inhibition of Uninjected Paw Volume Inflammation, Days 14 through 30 ([1]; 10 mg./kg. p.o. × 15, daily days 15-29, corn oil-acacia emulsion): 70%
- ED50 (Mouse Writhing): 1.48 mg/kg
